Source: BindingDB's records for doi:10.1021/ml200223s (2011)

Experiment: Antagonist activity at CRTH2 receptor in human whole blood assessed as inhibition of PGD2-induced eosinophil shape change incubated for 20 mins prior to PGD2-challenge measured after 10 mins by flow cytometry

- IC50: 40 nM
SMILES: CCCCC(=O)N(Cc1ccc2c(c1)OCCO2)c1cc(F)cc(-c2nnn[nH]2)c1
